Structures can show the parent of a compound that is named as a salt.
The compounds below were run against T1, Thromboxane A2 receptor (Rattus norvegicus, UniProt P34978) (assay: Thromboxane A2 receptor antagonistic action (inhibitory action of U-46619-induced contractions of rat aortic strips)). Settings: isolated helical strips of rat aorta precontracted with 3×10^-8 M U-46619; read-out: IC50 (the concentrations which inhibited the contraction by 50%).
T1 sequence (P34978 1-341): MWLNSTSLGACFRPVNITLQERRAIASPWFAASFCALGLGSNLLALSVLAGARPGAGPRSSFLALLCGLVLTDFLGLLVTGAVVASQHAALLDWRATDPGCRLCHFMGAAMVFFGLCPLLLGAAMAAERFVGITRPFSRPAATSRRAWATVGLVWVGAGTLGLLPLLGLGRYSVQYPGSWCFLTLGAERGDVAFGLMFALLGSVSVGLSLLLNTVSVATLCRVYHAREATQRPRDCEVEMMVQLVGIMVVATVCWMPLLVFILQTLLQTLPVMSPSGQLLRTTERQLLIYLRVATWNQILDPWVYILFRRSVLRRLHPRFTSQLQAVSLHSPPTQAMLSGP
Type: cell-based

IC50 [nM]	SMILES
21000	O=C(O)c1cc(CCNS(=O)(=O)c2ccccc2)c2cccccc1-2 [Compound 1, 3-[2-(Benzenesulfonylamino)ethyl]-azulene-1-carboxylic acid]
570	O=C(O)c1cc(CCCCNS(=O)(=O)c2ccccc2)c2cccccc1-2 [Compound 3, 3-[4-(Benzenesulfonylamino)butyl]-azulene-1-carboxylic acid]
140	O=C(O)c1cc(CCCCCCNS(=O)(=O)c2ccccc2)c2cccccc1-2 [Compound 5, 3-[6-(Benzenesulfonylamino)hexyl]-azulene-1-carboxylic acid]
15000	O=C(O)c1cc(CCCCCCCCNS(=O)(=O)c2ccccc2)c2cccccc1-2 [Compound 7, 3-[8-(Benzenesulfonylamino)octyl]-azulene-1-carbaxylic acid]
3100	CC(C)c1cccc2c(CCCCNS(=O)(=O)c3ccccc3)cc(C(=O)O)c-2c1 [Compound 10, 7-Isopropyl-3-[4-(benzenesulfonylamino)butyl]-azulene-1-carboxylic acid]
920	CC(C)c1cccc2c(CCCCCCNS(=O)(=O)c3ccccc3)cc(C(=O)O)c-2c1 [Compound 12, 7-Isopropyl-3-[6-(benzenesulfonylamino)hexyl]-azulene-1-carboxylic acid]
21000	CC(C)c1cccc2c(CCNS(=O)(=O)c3ccccc3)cc(C=CC(=O)O)c-2c1 [Compound 14, 3-[7-Isopropyl-3-(2-(benzenesulfonylamino)ethyl)-azulene-1-yl]-2-propenoicacid]
60000	CC(C)c1ccc2c(CCNS(=O)(=O)c3ccccc3)cc(C(=O)O)c-2cc1 [Compound 15, 6-Isopropyl-3-[2-(benzenesulfonylamino)ethyl]-azulene-1-carboxylic acid]
78	CC(C)c1ccc2c(CCCCNS(=O)(=O)c3ccccc3)cc(C(=O)O)c-2cc1 [Compound 17, 6-Isopropyl-3-[4-(benzenesulfonylamino)butyl]-azulene-1-carboxylic acid]
70	CC(C)c1ccc2c(CCCCCCNS(=O)(=O)c3ccccc3)cc(C(=O)O)c-2cc1 [Compound 19, 6-Isopropyl-3-[6-(benzenesulfonylamino)hexyl]-azulene-1-carboxylic acid]
20	Cc1ccc(S(=O)(=O)NCCCCc2cc(C(=O)O)c3ccc(C(C)C)ccc2-3)cc1 [Compound 22, 6-Isopropyl-3-[4-(4-methylbenzenesulfonylamino)butyl]-azulene-1-carboxylicacid]
16	COc1ccc(S(=O)(=O)NCCCCc2cc(C(=O)O)c3ccc(C(C)C)ccc2-3)cc1 [Compound 23, 6-Isopropyl-3-[4-(4-methoxybenzenesulfonylamino)butyl]-azulene-1-carboxylic acid]
11	CC(C)c1ccc2c(CCCCNS(=O)(=O)c3ccc(F)cc3)cc(C(=O)O)c-2cc1 [Compound 24, 6-Isopropyl-3-[4-(4-fluorobenzenesulfonylamino)butyl]-azulene-1-carboxylicacid]
5.3	CC(C)c1ccc2c(CCCCNS(=O)(=O)c3ccc(Cl)cc3)cc(C(=O)O)c-2cc1 [Compound 25, 6-Isopropyl-3-[4-(4-chlorobenzenesulfonylamino)butyl]-azulene-1-carboxylicacid]
43	CC(C)c1ccc2c(CCCCNS(=O)(=O)c3ccc(Cl)c(Cl)c3)cc(C(=O)O)c-2cc1 [Compound 26, 6-Isopropyl-3-[4-(3,4-dichlorobenzenesulfonylamino)butyl]-azulene-1-carboxylic acid]
5.3	CC(C)c1ccc2c(CCCCNS(=O)(=O)c3ccc(Br)cc3)cc(C(=O)O)c-2cc1 [Compound 27, 6-Isopropyl-3-[4-(4-bromobenzenesulfonylamino)butyl]-azulene-1-carboxylic acid]
5.1	CC(C)c1ccc2c(CCCCNS(=O)(=O)c3ccc(I)cc3)cc(C(=O)O)c-2cc1 [Compound 28, 6-Isopropyl-3-[4-(4-iodobenzenesulfonylamino)butyl]-azulene-1-carboxylic acid]
12	CC(C)c1ccc2c(CCCCNS(=O)(=O)c3ccc(C(F)(F)F)cc3)cc(C(=O)O)c-2cc1 [Compound 31, 6-Isopropyl-3-[4-(4-trifluoromethylbenzenesulfonylamino)butyl]-azulene-1-carboxylic acid]
13	CC(C)c1ccc2c(CCCCNS(=O)(=O)c3ccc([N+](=O)[O-])cc3)cc(C(=O)O)c-2cc1 [Compound 32, 6-Isopropyl-3-[4-(4-nitrobenzenesulfonylamino)butyl]-azulene-1-carboxylic acid]

IC50 [nM]	SMILES
300	CC(C)c1ccc2c(CCCCNS(=O)(=O)c3ccccc3)cc(CC(=O)O)c-2cc1 [Compound 33, 2-[6-Isopropyl-3-[4-(benzenesulfonylamino)butyl]-azulene-1-yl]-acetic acid]
2400	CC(C)c1ccc2c(C=CC(=O)O)cc(CCCCNS(=O)(=O)c3ccccc3)c-2cc1 [Compound 36, 3-[6-Isopropyl-3-[4-(benzenesulfonylamino)butyl]-azulene-1-yl]-2-propenoicacid]
10000	CC(C)c1ccc2c(CCCCN(C)S(=O)(=O)c3ccccc3)cc(C(=O)O)c-2cc1 [Compound 37, 6-Isopropyl-3-[4-(N-methylbenzenesulfonylamino)butyl]-azulene-1-carboxylicacid]
4400	CC(C)c1ccc2c(CCCCNC(=O)c3ccccc3)cc(C(=O)O)c-2cc1 [Compound 41, 6-Isopropyl-3-[4-(benzoylamino)butyl]-azulene-1-carboxylic acid]
4.4	CC(C)c1ccc2c(CCCCNS(=O)(=O)c3ccc(F)cc3)cc(S(=O)(=O)O)c-2cc1 [Compound 47, 6-Isopropyl-3-[4-(P-fluorobenzenesulfonylamino)butyl]-azulene-1-sulfonic acid sodium salt]
1.7	CC(C)c1ccc2c(CCCCNS(=O)(=O)c3ccc(Cl)cc3)cc(S(=O)(=O)O)c-2cc1 [Compound 48, 6-Isopropyl-3-[4-(P-chlorobenzenesulfonylamino)butyl]-azulene-1-sulfonic acid sodium salt]
15	CC(C)c1ccc2c(CCCCNS(=O)(=O)c3ccc(Cl)c(Cl)c3)cc(S(=O)(=O)O)c-2cc1 [Compound 49, 6-Isopropyl-3-[4-(3,4-dichlorobenzenesulfonylamino)butyl-azulene-1-sulfonic acid sodium salt]
1.7	CC(C)c1ccc2c(CCCCNS(=O)(=O)c3ccc(Br)cc3)cc(S(=O)(=O)O)c-2cc1 [Compound 50, 6-Isopropyl-3-[4-(P-bromobenzenesulfonylamino)butyl]-azulene-1-sulfonic ac id sodium salt]
1.6	CC(C)c1ccc2c(CCCCNS(=O)(=O)c3ccc(I)cc3)cc(S(=O)(=O)O)c-2cc1 [Compound 51, 6-Isopropyl-3-[4-(P-iodobenzenesulfonylamino)butyl]-azulene-1-sulfonicacid sodium salt]
210	CC(C)c1ccc2c(C(=O)O)cc([C@H](C)CCCNS(=O)(=O)c3ccccc3)c-2cc1 [Compound 54, 6-isopropyl-3-[(1R)-methyl-4-(benzenesulfonylamino)butyl]-azulene-1-carbolxylic acid]
44	CC(C)c1ccc2c(C(=O)O)cc([C@@H](C)CCCNS(=O)(=O)c3ccccc3)c-2cc1 [Compound 55, 6-isopropyl-3-[(1S)-methyl-4-(benzenesulfonylamino)butyl]-azulene-1-carboxylic acid]
160	CC(C)c1ccc2c(C[C@H](C)CCNS(=O)(=O)c3ccccc3)cc(C(=O)O)c-2cc1 [Compound 56, 6-isopropyl-3-[(2S)-methyl-4-(benzenesulfonylamino)butyl]-azulene-1-carboxylic acid]
36	CC(C)c1ccc2c(C[C@@H](C)CCNS(=O)(=O)c3ccccc3)cc(C(=O)O)c-2cc1 [Compound 57, 6-isopropyl-3-[(2R)-methyl-4-(benzenesulfonylamino)butyl]-azulene-1-carboxylic acid]
35	CC(C)c1ccc2c(CC[C@@H](C)CNS(=O)(=O)c3ccccc3)cc(C(=O)O)c-2cc1 [Compound 58, 6-isopropyl-3-[(3R)-methyl-4-(benzenesulfonylamino)butyl]-azulene-1-carboxylic acid]
16	CC(C)c1ccc2c(CC[C@H](C)CNS(=O)(=O)c3ccccc3)cc(C(=O)O)c-2cc1 [Compound 59, 6-isopropyl-3-[(3S)-methyl-4-(benzenesulfonylamino)butyl]-azulene-1-carboxylic acid]
50	CC(C)c1ccc2c(CCC[C@H](C)NS(=O)(=O)c3ccccc3)cc(C(=O)O)c-2cc1 [Compound 62, 6-isopropyl-3-[(4S)-(benzenesulfonylamino)pentyl]-azulene-1-carboxylicacid]
420	CC(C)c1ccc2c(CCC[C@@H](C)NS(=O)(=O)c3ccccc3)cc(C(=O)O)c-2cc1 [Compound 63, 6-isopropyl-3-[(4R)-(benzenesulfonylamino)pentyl]-azulene-1-carboxylicacid]
690	CC(C)c1ccc2c(CC(C)(C)CCNS(=O)(=O)c3ccccc3)cc(C(=O)O)c-2cc1 [Compound 64, 6-isopropyl-3-[2,2-dimethyl-4-(benzenesulfonylamino)butyl]-azulene-1-carboxylic acid]
50	CC(C)c1ccc2c(CCC(C)(C)CNS(=O)(=O)c3ccccc3)cc(C(=O)O)c-2cc1 [Compound 65, 6-isopropyl-3-[3,3-dimethyl-4-(benzenesulfonylamino)butyl]-azulene-1-carboxylic acid]

— patent US5081152A, “Azulene derivatives as thromboxane A2 and prostaglandin endoperoxide receptor antagonist” (Kotobuki Seiyaku Co., Ltd., priority 1989, dated 1992)
